Test results as given in patent US8252942B2, “Substituted imidazoline compounds” (Board of Trustees of Michigan State University, priority 2008, dated 2012).

Assays:
RPMI-8226 cells = assay: Cell death in multiple myeloma cells, MTS assay; format: cell-based; conditions: Homo sapiens, RPMI-8226, 24 h
Procedure: RPMI-8226 cells were treated with various concentrations of TCH-013 in duplicate and incubated for 24 hours. Percent survival was extrapolated based on mitochondrial activity as determined by MTS assay.
(§1) Given the critical role NF-κB-mediated IL-6 production plays in the growth and […] of multiple myeloma, we investigated the use of TCH-013 in somewhat more detail in a MM cell line (RPMI-8226).

[1] = system: white blood cells (lymphocytes) in human blood; assay: Cytotoxicity towards lymphocytes in human blood; format: cell-based; conditions: human blood exposed 24 hours, lymphocyte survival, effective concentrations (<20 μM) (FIG. 11)
Procedure: Human blood was exposed to TCH-013 (imidazoline 1) for 24 hours at various concentrations and the lymphocytes were evaluated for survival.
as §1

Row | Structure (SMILES) | CC50 (RPMI-8226 cells) | cytotoxicity towards white blood cells [1]
1 | COc1cccc2c1C(=O)c1c(O)c3c(c(O)c1C2=O)C[C@@](O)(C(=O)CO)C[C@@H]3O[C@H]1C[C@H](N)[C@H](O)[C@H](C)O1 [doxorubicin] | 1.2 µM | 
2 | N[C@@H](Cc1ccc(N(CCCl)CCCl)cc1)C(=O)O [melphalan] | 30.6 µM | 
3 | CCOC(=O)[C@@]1(c2ccccc2)N=C(c2ccccc2)N(Cc2ccccc2)[C@H]1c1ccccc1 (racemic) [TCH-013] | 4 µM | no significant cytotoxicity
